The target of the assay is mouse recombinant isozyme PKCα (Mus musculus, UniProt P20444). Nature of the assay: [3H]PDBu binding assay (displacement of bound [20-3H]phorbol 12,13-dibutyrate). The conditions noted are these: displacement of [3H]PDBu from PKCα in the presence of calcium and phosphatidylserine; read-out: inhibitory dissociation constant (Ki). Here is the method: The inhibitory dissociation constant (Ki) of each bryologue ligand was determined by the ability of the ligand to displace bound [20-^3H]phorbol 12,13-dibutyrate (PDBu) from mouse recombinant isozyme PKC α in the presence of calcium and phosphatidylserine, using a polyethylene glycol precipitation assay developed in our laboratory as described elsewhere. Briefly, the assay mixture (250 μL) contained 50 mM Tris-HCl (pH 7.4 at room temperature), 100 μg/mL phosphatidylserine, 0.1 mM Ca^2+, 4 mg/mL bovine immunoglobulin G and 0.003% Tx-100, 2 nM [^3H]PDBu and various concentrations of the competing ligand. […] The radioactivity was determined by scintillation counting, using Cytoscint (ICN, Costa Mesa, Calif.). Specific binding was calculated as the difference between total and nonspecific PDBu binding. The Inhibitory dissociation constants (Ki) were calculated using the method previously described by Blumberg and Lewin.
The inhibitory dissociation constant (Ki) of MERLE 28 was determined by the ability of the ligand to displace bound [20-^3H]phorbol 12,13-dibutyrate (PDBu) from mouse recombinant isozyme PKCα in the presence of calcium and phosphatidylserine, using a polyethylene glycol precipitation assay previously described by Blumberg and Lewin. […] The radioactivity was determined by scintillation counting, using Cytoscint (ICN, Costa Mesa, Calif.). […]
(In general: Loss of bound radioactivity is the signal in a displacement assay; it reports binding, not function.)

This note sets out measurements from patent US9096550B2, “Bryostatin analogues and methods of making and using thereof” (UNIVERSITY OF UTAH RESEARCH FOUNDATION, priority 2008, dated 2015).

What is called Ki is the equilibrium dissociation constant of an inhibitor or competing ligand from its target.

In the case of `C=C1C[C@H]2C[C@H]3C[C@@H](OC(C)=O)C[C@@H](C[C@@H](O)CC(=O)O[C@@H]([C@@H](C)O)C[C@@H]4C/C(=C\C(=O)OC)[C@H](OC(=O)CCCCCCC)[C@@](O)(O4)C(C)(C)/C=C/[C@@H](C1)O2)O3` [MERLE 27], the Ki is 3 ± 0.6 nM.
